These results are taken from US10940139B2, “Compounds that interact with the Ras superfamily for the treatment of cancers, inflammatory diseases, rasopathies, and fibrotic disease” (Shy Therapeutics LLC, priority 2017, dated 2021).

Chain of KRas G12D/Q61H double mutant (P01116-2 other isoform, or with tags, fused parts or gaps G12D/Q61H): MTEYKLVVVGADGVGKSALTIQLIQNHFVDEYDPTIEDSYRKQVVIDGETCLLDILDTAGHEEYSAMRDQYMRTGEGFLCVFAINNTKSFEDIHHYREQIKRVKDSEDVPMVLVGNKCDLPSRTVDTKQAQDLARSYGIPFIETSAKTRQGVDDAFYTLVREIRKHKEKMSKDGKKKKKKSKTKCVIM

One assay addresses KRas G12D/Q61H double mutant (Homo sapiens (Human), UniProt P01116, G12D/Q61H). Nature of the assay: Ras GTP binding domain inhibition assay (labeled GTP). The following applies: 20 μM compound; KRas G12D/Q61H double mutant; read-out: % Inhibition at 20 μM of K-Ras mutant and wild-type protein, KRas G12D Q61H. A digest of the protocol: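 Labelled-GTP binding: plate-captured His-KRas protein was pre-exposed to compound for 3 h at room temperature (single 20 μM point or dilution series, 1% DMSO, Tris pH 7.5/MgCl2/DTT buffer). Cy3- or Cy5-GTP was then added for 45 min. Washed wells were read for retained fluorescence to give inhibition or IC50.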
For the molecule `CC(=O)c1ccccc1OCCN(c1nccs1)S(=O)(=O)c1ccccc1`, the inhibition at 20 µM fell in the range of 25 to 50%.

Regarding `CC1CC1COC(=O)c1sccc1S(=O)(=O)N1CCSCC1` (stereo not drawn), the inhibition at 20 µM fell in the range of 25 to 50%.

As to `O=C(c1ccoc1)N1CCC(Nc2cc(Cl)ccc2OCC2CCC2)CC1`, the inhibition at 20 µM lay in the range of 25 to 50%.

With `CCOC(=O)c1c(-c2ccc(OC)cc2)oc2ccc(OCC=C(C)C)cc12`, the inhibition at 20 µM is 25 to 50%.

Take `CCCCOCCN(C(=O)c1ccn(-c2ccccc2)n1)c1ccccc1Br`: the inhibition at 20 µM is 25 to 50%.

In the case of `CC(NC(=O)C1CSC(c2ccccc2)=N1)c1ccccn1` (stereo not drawn), the inhibition at 20 µM fell in the range of 1 to 25%.

With `NC(=O)CCN1CCOC(c2nc(-c3ccccc3)cs2)C1` (stereo not drawn), the inhibition at 20 µM lay in the range of 1 to 25%.

With `COCCCCC(=O)N(c1cc(C)ccc1F)C(C)c1ccc(C)cc1` (stereo not drawn), the inhibition at 20 µM was 1 to 25%.

Consider `CC1CN(C(=O)CSc2nnc(Cc3cccc4ccccc34)n2C2CCCCC2)CC(C)O1` (stereo not drawn), for which the inhibition at 20 µM lay within 25 to 50%.

Take `CCCCc1ccc([N+]2=C3SCCCN3CC2(O)c2ccc(C)cc2)cc1` (stereo not drawn): the inhibition at 20 µM lay in the range of 25 to 50%.

As for `COC(=O)c1ccoc1COc1ccc(C(=O)c2ccc(F)cc2)cc1`, the inhibition at 20 µM lay within 51 to 75%.

With `CC(=O)c1cc(C(=O)Nc2cccc(COC3CCCCC3)c2)n(C)c1`, the inhibition at 20 µM was 25 to 50%.

On to `COc1ccc(C(=O)NC(C)Cc2ccc(-c3ccccc3)cc2)c(OC)c1OC` (stereo not drawn), for which the inhibition at 20 µM lay in the range of 25 to 50%.

Turning to `C=CCc1cc(OCC)ccc1OCC(=O)NCc1ccc(OC)cc1`, the inhibition at 20 µM lay in the range of 25 to 50%.

Take `CCOc1ccc(Oc2ccc(C(F)(F)F)cc2NC(=O)CC(NC(C)=O)c2ccccc2)cc1` (stereo not drawn): the inhibition at 20 µM was 1 to 25%.

For the molecule `Cc1ccc2c(c1)C1CN(C)CCC1N2Sc1ccc(Cl)cc1` (stereo not drawn), the inhibition at 20 µM was in the range of 25 to 50%.

With `COCCN(Cc1ccccc1)CC(O)COC(c1ccc(OC)cc1)c1ccc(OC)cc1` (stereo not drawn), the inhibition at 20 µM was 1 to 25%.

As to `O=C(COC1CCCC1)Nc1nnc(-c2ccccn2)[nH]1`, the inhibition at 20 µM fell in the range of 51 to 75%.

In the case of `O=C(NCC(F)(F)F)c1ccc(CN(Cc2cc(Cl)cc3c2OCCO3)C2CC2)cc1`, the inhibition at 20 µM was in the range of 25 to 50%.

Turning to `CC[S+]([O-])c1ccccc1C(=O)OCc1ccc(-c2ccccc2C#N)cc1` (stereo not drawn), the inhibition at 20 µM is 25 to 50%.

As for `C=CCn1c(C)cc(C(=O)COC(=O)c2ccccc2Oc2ccccc2)c1C`, the inhibition at 20 µM was in the range of 51 to 75%.

Consider `COC(=O)C(NCc1ccc(-c2ccc(Cl)cc2)o1)c1ccccc1` (stereo not drawn), for which the inhibition at 20 µM lay in the range of 25 to 50%.

As for `CCN(C(=O)c1cccc(-n2cccn2)c1)c1ccc(C#N)c(Cl)c1`, the inhibition at 20 µM is 1 to 25%.

Still in this assay, the particulars now being: 20 μM compound; read-out: % Inhibition at 20 μM KRas G12D Q61H.
As to `CCc1cc2c(=O)[nH]c(-c3ccccn3)nc2s1`, the inhibition at 20 µM fell in the range of 25 to 50%.

Regarding `N#Cc1ccc(CC(=O)Nc2ccnc(-c3ccccn3)n2)cc1` [drawing 2700], the inhibition at 20 µM lay in the range of 25 to 50%.

On to `COc1ccc(N2CCN(C(=O)c3csc4c(O)nc(-c5ccccn5)nc34)CC2)cc1`, for which the inhibition at 20 µM fell in the range of 25 to 50%.

Turning to `Nc1nc(-c2ccccn2)nc2sccc12` [drawing 2821], the inhibition at 20 µM is 25 to 50%.

Regarding `O=C(c1cccc(S(=O)(=O)N2CCOCC2)c1)N1N=C(c2ccccc2)CC1(O)C(F)(F)F` (stereo not drawn), the inhibition at 20 µM lay in the range of 25 to 50%.

For the molecule `Nc1nc(O)c2scc(C(=O)N(CCO)CCOCCO)c2n1` [drawing 2669], the inhibition at 20 µM was 1 to 25%.

For the molecule `Cc1nc(-c2ccc(F)cc2)sc1C(=O)NCCN(C)c1ccccc1`, the inhibition at 20 µM lay in the range of 25 to 50%.

Regarding `N#Cc1ccccc1N1CCN(C(=O)c2csc3c(O)nc(-c4ccccn4)nc23)CC1` [drawing 2722], the inhibition at 20 µM was 1 to 25%.

On to `Cc1cc(C)n(-c2ccc(C(=O)Nc3nnc(-c4ccccn4)[nH]3)cn2)n1`, for which the inhibition at 20 µM lay in the range of 25 to 50%.

As to `O=c1[nH]c(-c2cnc(Oc3ccccc3)cn2)nc2ccsc12`, the inhibition at 20 µM fell in the range of 1 to 25%.

As for `CN(c1ccccc1)c1ccccc1NCc1nnnn1-c1ccccc1`, the inhibition at 20 µM was in the range of 1 to 25%.

Take `CCc1ccc(-c2nc(C)c(C(=O)N(Cc3ccco3)C3CCS(=O)(=O)C3)s2)cc1` (stereo not drawn): the inhibition at 20 µM was 25 to 50%.

As to `Cc1cc(C)n2nc(CC(=O)N(Cc3ccc(F)cc3)C3CC3)nc2n1`, the inhibition at 20 µM lay in the range of 1 to 25%.

Consider `O=C(CCc1ccc(F)cc1)Nc1nnc(-c2ccccn2)[nH]1`, for which the inhibition at 20 µM was in the range of 25 to 50%.

Consider `O=C(Nc1nnc(-c2ccccn2)[nH]1)c1ccc(Cn2cncn2)cc1`, for which the inhibition at 20 µM was 25 to 50%.

`Cc1ccc(OCCn2c(CN3CCCCC3)nc3ccccc32)cc1`: the inhibition at 20 µM lay in the range of 25 to 50%.

Take `Cc1ccc(C)c(NC(=O)c2ccccc2OCCOc2ccccc2)c1`: the inhibition at 20 µM was 25 to 50%.

As for `Fc1ccc(OCCSc2nnc(C3COc4ccccc4O3)o2)cc1` (stereo not drawn), the inhibition at 20 µM was in the range of 1 to 25%.

`COc1ccc(CC(=O)Nc2nc(-c3ccccn3)cs2)cc1OC`: the inhibition at 20 µM lay within 25 to 50%.

On to `COCc1ccc(C(=O)N(Cc2cccs2)Cc2ccccc2OC)cc1`, for which the inhibition at 20 µM is 1 to 25%.

For the molecule `COc1ccc(S(=O)(=O)N(CC(=O)N2CCCc3ccccc32)Cc2ccco2)cc1`, the inhibition at 20 µM was 25 to 50%.

As for `O=C(Nc1nnc(-c2ccccn2)[nH]1)C1CCCN(C(=O)c2ccoc2)C1` (stereo not drawn), the inhibition at 20 µM was 25 to 50%.

As to `O=c1[nH]c(-c2ncccn2)nc2ccc(-c3cccc(C(F)(F)F)c3)cc12`, the inhibition at 20 µM was 25 to 50%.

With `Cc1nc(-c2ccccn2)nc(O)c1CCC(=O)NCc1ccccc1F`, the inhibition at 20 µM lay in the range of 25 to 50%.

Consider `Cc1nn(C)c(C)c1CC(=O)Nc1nnc(-c2ccccn2)[nH]1`, for which the inhibition at 20 µM was in the range of 25 to 50%.

On to `COC(=O)CCN(Cc1ccc(F)c(F)c1)c1nc(C(F)(F)F)ccc1C#N`, for which the inhibition at 20 µM lay in the range of 25 to 50%.

For the molecule `CCCCCCNC(=O)c1cc(S(=O)(=O)N(C)C)ccc1N1CCOCC1`, the inhibition at 20 µM is 1 to 25%.

Take `CCN(C(=O)c1ccc(COc2ccccc2F)o1)c1ccccc1C`: the inhibition at 20 µM was in the range of 1 to 25%.

Take `Cc1cccc(-c2nnc(NC(=O)C3Cc4cc(F)ccc4O3)[nH]2)n1` (stereo not drawn): the inhibition at 20 µM lay in the range of 25 to 50%.

On to `COCCCC(=O)N1CCCc2c(O)nc(-c3ccccn3)nc21` [drawing 2648], for which the inhibition at 20 µM lay within 51 to 75%.

For the molecule `Cc1ccc(C)c(OCc2nnc(SCC(C)C(=O)c3ccc(F)c(F)c3)o2)c1` (stereo not drawn), the inhibition at 20 µM is 25 to 50%.

For `CC(=O)Nc1ccc(-c2nc(NC3CCCCC3)sc2C)cc1`, the inhibition at 20 µM lay within 1 to 25%.

With `O=C(Nc1nc(-c2ccccn2)cs1)c1cccc(-n2cnnn2)c1`, the inhibition at 20 µM was 25 to 50%.

Take `Cc1cccc(C)c1OCCn1c(CN2CCCCC2)nc2ccccc21`: the inhibition at 20 µM is 25 to 50%.

Turning to `CCN(CC(=O)Nc1ccccc1OC)Cc1coc(-c2cccs2)n1`, the inhibition at 20 µM was 1 to 25%.

`COCCN(CCOC)c1nc(-c2ccccn2)nc2scc(C(=O)NCCc3cnc(O)nc3)c12` [drawing 2812]: the inhibition at 20 µM was 1 to 25%.

For the molecule `Cc1cccc(Oc2ccc(S(=O)(=O)N3CCCCC3)cc2NCc2cc(C)on2)c1`, the inhibition at 20 µM fell in the range of 1 to 25%.

`Nc1nc(-c2ccccn2)nn1C(=O)c1ccc(N2CCNC2=O)cc1`: the inhibition at 20 µM fell in the range of 25 to 50%.

As to `Cc1cc(N2CCN(c3cccc(C(F)(F)F)c3)CC2)n2ncnc2n1`, the inhibition at 20 µM was in the range of 25 to 50%.

In the case of `Cc1ccc(C)c(OCC(O)CN(c2nccs2)S(=O)(=O)c2ccccc2)c1` (stereo not drawn), the inhibition at 20 µM was 1 to 25%.

For the molecule `CCCOc1ccc(OCCOC(=O)c2cccnc2SCCOc2ccc(OCCC)cc2)cc1`, the inhibition at 20 µM is 25 to 50%.

`C=CCCOC(C)C(=O)Nc1nnc(-c2ccccn2)[nH]1` (stereo not drawn): the inhibition at 20 µM was 25 to 50%.

Turning to `Oc1nc(-c2ccccn2)nc2c1ncn2-c1ccccn1` [drawing 2698], the inhibition at 20 µM was in the range of 25 to 50%.

As to `O=C1COc2c(cccc2C(=O)Nc2nnc(-c3ccccn3)[nH]2)N1`, the inhibition at 20 µM was 25 to 50%.

In the case of `c1ccc(OCc2nc(CNCCn3cccn3)cs2)cc1`, the inhibition at 20 µM lay in the range of 25 to 50%.

On to `Cc1[nH]c(-c2ccccn2)nc(=O)c1C`, for which the inhibition at 20 µM lay in the range of 25 to 50%.

Still in this assay, the particulars now being: 20 μM; read-out: KRas G12D Q61H % Inh.
Turning to `O=C(Nc1nnc(-c2ccccn2)[nH]1)c1ccc(=O)n(CCOc2ccccc2)n1` [drawing 2553], the inhibition at 20 µM lay within 51 to 75%.

On to `COC(=O)c1ccc(C(=O)NCC2(c3ccccc3OC)CCCC2)nc1` [drawing 2623], for which the inhibition at 20 µM is 25 to 50%.

As for `O=C(c1ccc2c(c1)CCO2)N1CCCc2c(O)nc(-c3ccccn3)nc21`, the inhibition at 20 µM was in the range of 1 to 25%.

Consider `O=C(CC1C=CCC1)Nc1nnc(-c2ccccn2)[nH]1` (stereo not drawn) [drawing 2484], for which the inhibition at 20 µM fell in the range of 51 to 75%.

As for `CC(C)c1noc(CCCC(=O)Nc2nnc(-c3ccccn3)[nH]2)n1` [drawing 2483], the inhibition at 20 µM lay within 51 to 75%.

`Oc1nc(-c2ccccn2)nc2c1CCCN2` [drawing 2637]: the inhibition at 20 µM was 25 to 50%.

For `O=C(Nc1nnc(-c2ccccn2)[nH]1)C1CCCN(c2ncccn2)C1` (stereo not drawn) [drawing 2514], the inhibition at 20 µM lay within 51 to 75%.

Regarding `N#Cc1ccccc1OCC(=O)Nc1nnc(-c2ccccn2)[nH]1` [drawing 2488], the inhibition at 20 µM lay within 51 to 75%.

In the case of `O=C(Nc1nnc(-c2ccccn2)[nH]1)c1ccc(CN2C(=O)CCC2=O)cc1` [drawing 2481], the inhibition at 20 µM fell in the range of 51 to 75%.

Regarding `COc1ccccc1-c1cc(C(=O)Nc2nnc(-c3ccccn3)[nH]2)no1` [drawing 2539], the inhibition at 20 µM fell in the range of 51 to 75%.

Take `O=C(CCCc1nc2ccccc2s1)Nc1nnc(-c2ccccn2)[nH]1`: the inhibition at 20 µM was 51 to 75%.

Turning to `CC(Oc1ccccc1C#N)C(=O)Nc1nnc(-c2ccccn2)[nH]1` (stereo not drawn) [drawing 2510], the inhibition at 20 µM was in the range of 51 to 75%.

With `O=C(Cc1c[nH]c2ccccc12)Nc1nnc(-c2ccccn2)[nH]1` [drawing 2456], the inhibition at 20 µM fell in the range of 51 to 75%.

Regarding `COc1cccc(CC(=O)Nc2nnc(-c3ccccn3)[nH]2)c1` [drawing 2460], the inhibition at 20 µM fell in the range of 51 to 75%.

Still in this assay, the particulars now being: at 20 μM; read-out: KRas G12D Q61H % Inh.
Consider `COc1cnc(CNC(=O)c2c(C)sc3c(O)nc(-c4ccccn4)nc23)[nH]c1=O` [drawing 3841], for which the inhibition at 20 µM worked out at 0%.
